Legend:
[1] = target: T1, human membrane folate-binding protein (mFBP) (Homo sapiens, UniProt P15328); assay: competitive binding assay against 3H-folic acid with mFBP prepared from KB cells
T1 construct: mFBP prepared from cultured KB cells (human nasopharyngeal carcinoma cells); endogenous in cells
Description: The dissociation constant (Kd) of the preferred inhibitors of the present invention for human membrane folate-binding protein (mFBP) can be determined in a competitive binding assay using mFBP prepared from cultured KB cells (human nasopharyngeal carcinoma cells) as disclosed in U.S. Pat. No. 5,646,141, the disclosures of which is hereby incorporated by reference in its entirety.
Human membrane folate binding protein can be obtained from KB cells by methods well known in the art. KB cells are washed, sonicated for cell lysis and centrifuged to form pelleted cells. The pellet can then be stripped of endogenous bound folate by resuspension in acidic buffer (KH2PO4—KOH and 2-mercaptoethanol) and centrifuged again. The pellet is then resuspended and the protein content quantitated using the Bradford method with bovine serum albumin (BSA) as standard.
Disassociation constants are determined by allowing, the test inhibitor to compete against ^3H-folic acid for binding to mFBP. Reaction mixtures are designed to generally contain mFBP, ^3H-folic acid, and various concentrations of the subject test inhibitor in acidic buffer (KH2PO4—KOH and 2-mercaptoethanol). The competition reaction is typically conducted at 25°. Because of the slow nature of release of bound ^3H-folic acid, the test inhibitor may be prebound prior to addition of bound ^3H-folic acid, after which the reaction should be allowed to equilibriate. The full reaction mixtures then should be drawn through nitrocellulose filters to isolate the cell membranes with bound ^3H-folic acid. The trapped mFBP are then washed and measured by scintillation counting. The data can then be nonlinearly fitted as described above in determining Ki. The mFBP Kd for ^3H-folic acid, used for calculating the competitor Kd, can be obtained by directly titrating mFBP with ^3H-folate. The mFBP Kd can then be used to calculate the competitor Kd by nonlinear fitting of the data to an equation for tight-binding Kc. Table 1 below provides the Kd values of several GARFT inhibitors using the assay described above.

[2] = system: MTAP-competent NCI-H460 cells; assay: MTT growth inhibition by Compound 1 or 3 with and without MTA; type: cell-based, human; conditions: FIG. 7
Description: Cells were plated in columns 2-12 of a 96-well microtiter plate, with column 2 designated as the vehicle control. The same volume of medium was added to column 1. Column 1 was designated as the media control. After a 4-hour incubation, the cells were treated with Compound 7, with or without a non-growth inhibitory concentration of MTA, in quadruplicate wells. […] MTT (4,5-dimethylthiazol-2-yl)-2,5-diphenyl tetrazolium bromide; Sigma, St. Louis, Mo.) was added to a final concentration of 0.25-1 mg/ml in each well, and the plates were incubated for 4 hours. The liquid was removed from each well. DMSO was added to each well, then the plates were vortexed slowly in the dark for 7-20 minutes. The formazin product was quantified spectrophotometrically at […] on a Molecular Devices Vmax™ kinetic microplate reader.

AICARFT = target: T2, AICARFT (Homo sapiens, UniProt P31939); conditions: cited from earlier work
T2 construct: the catalytic domain of the human enzyme and its substrate (i.e., GARFT and GAR, or AICARFT and AICAR)
T2 sequence (P31939 199-592 limits assumed): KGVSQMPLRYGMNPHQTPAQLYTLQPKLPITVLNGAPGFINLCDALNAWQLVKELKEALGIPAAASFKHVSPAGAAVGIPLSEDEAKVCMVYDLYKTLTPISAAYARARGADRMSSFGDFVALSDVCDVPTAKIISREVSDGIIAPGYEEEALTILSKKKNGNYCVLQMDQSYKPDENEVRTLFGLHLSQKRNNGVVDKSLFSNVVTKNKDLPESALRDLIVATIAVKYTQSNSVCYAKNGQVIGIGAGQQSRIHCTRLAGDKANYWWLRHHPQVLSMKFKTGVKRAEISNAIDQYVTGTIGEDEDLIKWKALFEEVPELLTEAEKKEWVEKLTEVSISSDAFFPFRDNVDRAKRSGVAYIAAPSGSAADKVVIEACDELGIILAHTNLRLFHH

[3] = system: BxPC-3 cells transfected with the MTAP gene; assay: colony formation cytotoxicity, 6 h drug exposure; type: cell-based, human; conditions: 1.5 μM Compound 7 with 50 μM anti-toxicity agent, FIG. 5a
Description: (§1) Cytoxicity data was collected using BxPC-3, PANC-1 and HT-1080 cells which were cultured in Iscove's medium supplemented with 10% dialyzed, horse serum, 5% nonessential amino acids and 5% sodium pyruvate.
(§2) Mid-log-phase cells were trypsinized and placed in 60 mm tissue culture dishes at 200 or 250 cells per dish. Cells from each cell line were left to attach for 4 hours and then were treated with Compound 7, with or without MTA or dcSAMe, in 5-fold serial dilutions for 6 or 24 hours. For data shown in FIGS. 5a and 5b, cells were exposed to drug(s) for 6 hours only. For data shown in FIG. 6, cells were exposed to Compound 7 for 24 hours and to MTA continuously for the duration of colony growth (i.e. 24 hours and thereafter). Cells were next washed with PBS, and then fixed and stained with 1% w/v crystal violet in 25% methanol (Sigma, St. Louis, Mo.). After washing the dishes 2-3 times. with deionized water, the colonies were counted. Triplicate dishes were used for each drug concentration.

MTAP-deficient BxPC-3 = assay: colony formation cytotoxicity, 6 h drug exposure; type: cell-based, human; conditions: Compound 7 with 50 μM anti-toxicity agent, FIG. 5b
Description: as §1, §2

[4] = system: MTAP-competent NCI-H460 cells; assay: colony formation cytotoxicity with varying duration of MTA exposure; type: cell-based, human; conditions: MTA for at least 48 hours, at least 1 day after Compound 7 exposure, FIG. 8
Description: as §2
Cytoxicity data for combination therapy of Compound 7 with MTA was collected using MTAP-competent […] cells. NCI-H460 cells were cultured, incubated and stained as described in Example 3(B) above, but with an incubation time of up to eight days.

[5] = system: human pancreatic BxPC-3 tumor; assay: antitumor activity in MTAP-deficient xenograft model; type: in vivo, mice; conditions: 50 mg/kg MTA bid x8 alone
Description: To evaluate the in vivo effect of combination therapy on known human MTAP-deficient tumors, an MTAP-deficient cell line was introduced to mice to produce xenograft MTAP-deficient tumors. 108 BALB/c/nu/nu female mice bearing subcutaneous tumor fragments produced from the MTAP-deficent BxPC-3 cell line were housed 3 per cage with free access to food and water. Mice were fed a folate-deficient chow (#Td84052, Harlan Teklad, Madison, Wis.) beginning 14 days prior to initiation of drug treatment and continuing throughout the study. After randomization by tumor volume into 8 treatment groups and assigning the remaining 12 mice to group 7, beginning on the twenty-first day after tumor implant mice were dosed with Compound 7 daily for 4 days, and with MTA or vehicle twice-a-day for 8 days, in the amounts indicated in Table 7 below. The vehicle for both compounds was 0.75% sodium bicarbonate in water (7.5% NaHCO3 solution (Cellgro #25-035-4, Mediatech, Herndon, Va.) diluted 1:10 in sterile water for injection (Butler, Columbus, Ohio)) under pH adjusted to 7.0-7.4. Solutions were sterilized by filtration through 0.22 micron polycarboniate filters (Cameo 25GAS, Micron Separations Inc., Westboro, Mass.). Tumor volumes and animal weight loss, which is an indicator of toxicity, were recorded daily for 14 days at the same time of day, then on a Monday, Wednesday, Friday schedule for the remainder of the study.

Human MTAP = target: T3, Human MTAP (Homo sapiens, UniProt Q13126); assay: MTAP substrate assay, coupled spectrophotometric (adenine, xanthine oxidase); type: biochemical; conditions: 2 nM MTAP; for activity at 50 µM: 10 min, compound 50 uM, relative to MTA at 50 uM, read-out: MT-A—50: initial velocity as a percentage of the initial velocity with MTA as substrate; for MT-A—10: initial velocity as a percentage of the initial velocity with MTA as substrate: compound 10 uM, relative to MTA at 10 uM
T3 construct: six-histidine tag (His6) (N); made in house; host or cells: E. coli BL21 DE3
T3 sequence (Q13126 1-283): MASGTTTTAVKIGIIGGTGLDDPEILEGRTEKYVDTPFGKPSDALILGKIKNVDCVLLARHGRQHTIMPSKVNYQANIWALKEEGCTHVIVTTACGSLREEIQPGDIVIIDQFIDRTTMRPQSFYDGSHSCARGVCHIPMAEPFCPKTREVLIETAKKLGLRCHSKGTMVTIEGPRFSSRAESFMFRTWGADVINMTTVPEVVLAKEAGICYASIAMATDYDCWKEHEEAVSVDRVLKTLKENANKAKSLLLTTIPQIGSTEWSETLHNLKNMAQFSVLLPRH
How it was run: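 Detection was xanthine oxidase-coupled (0.8 units/ml), reading adenine-derived absorbance at 305 nm over 10 min in potassium phosphate/DTT buffer at 37° C, with N-His6 enzyme purified from E. coli.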

T1 sequence (P15328 25-234): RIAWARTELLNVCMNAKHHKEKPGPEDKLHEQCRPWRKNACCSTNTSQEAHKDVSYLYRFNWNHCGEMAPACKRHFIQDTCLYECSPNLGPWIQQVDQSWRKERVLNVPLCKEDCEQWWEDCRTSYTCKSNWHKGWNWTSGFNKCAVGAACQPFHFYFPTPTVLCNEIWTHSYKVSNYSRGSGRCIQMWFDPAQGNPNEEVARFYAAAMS

Structure (SMILES) | Kd [1] [nM] | activity at 50 µM (Human MTAP) [%] | MT-A—10: initial velocity as a percentage of the initial velocity with MTA as substrate (Human MTAP) [%] | other results
Nc1nc(N)c(SCCc2ccc(C(=O)N[C@@H](CCC(=O)O)C(=O)O)s2)c(=O)[nH]1 [Compound 1, N-[5-(2[(2,6-diamino-4(3H)-oxopyrimidin5yl)thio]ethyl)thieno-2-yl]-L-glutamic acid] |  |  |  | factor by which MTA reduced the growth inhibitory activity [2]: 3; Ki (specific inhibitor of AICARFT) (AICARFT): micromolar
C[S+](CCCN)CC1OC(n2cnc3c(N)ncnc32)C(O)C1O (stereo not drawn) [dcSAMe, decarboxylated S-adenosylmethionine] |  |  |  | cell survival [3]: 100%; effect on cell survival (MTAP-deficient BxPC-3): increased cell survival by less than observed for the MTAP competent cells
CSC[C@H]1O[C@@H](n2cnc3c(N)ncnc32)[C@H](O)[C@@H]1O [MTA, methylthioadenosine] |  |  |  | cell survival [3]: 100%; protection from Compound 7-induced cytotoxicity [4]: fully protected cells from Compound 7-induced cytotoxicity; Time to 1000 mm^3 (days) Mean [5]: 22.6 days; Time to 1000 mm^3 (days) Median [5]: 21.4 days
CCCCOC(=O)CCSC[C@H]1O[C@@H](n2cnc3c(N)ncnc32)[C@H](O)[C@@H]1O [2(G)(139), Butyl 3-({[(2S, 3S, 4R, 5R)-5-(6-amino-9H-purin-9-yl)-dihydroxytetrahydro-furan-2-yl]methyl}thio)-propanoate] |  | 30 | 26.5 | 

Continued, in another order:

Kd [1] [nM] | activity at 50 µM (Human MTAP) [%] | MT-A—10: initial velocity as a percentage of the initial velocity with MTA as substrate (Human MTAP) [%] | Structure (SMILES) | other results
0.71 |  |  | Cc1cc(C(=O)N[C@@H](CCC(=O)O)C(=O)O)sc1CC[C@H]1CNc2nc(N)[nH]c(=O)c2S1 [Compound 5, 4-[2-(2-Amino-4-oxo-4,6,7,8-tetrahydro-3H-pyrimido[5,4-b][1,4]thiazin-6-yl)-(S)-ethyl]-3-methyl-2-thienoyl-5-amino-L-glutamic acid] | 
0.0042 |  |  | Cc1cc(C(=O)N[C@@H](CCC(=O)O)C(=O)O)sc1CC[C@H]1CNc2nc(N)[nH]c(=O)c2S1 (single isomer, unassigned) [Compound 3] | factor by which MTA reduced the growth inhibitory activity [2]: greater than 5
136 |  |  | Cc1cc(C(=O)N[C@@H](CCC(=O)O)C(=O)O)sc1CCCSc1c(N)nc(N)[nH]c1=O [Compound 2] | 
1 |  |  | Cc1cc(C(=O)N[C@@H](CCC(=O)O)C(=O)O)sc1CC[C@@H]1CNc2nc(N)[nH]c(=O)c2S1 [Compound 4, 4-[2-(2-Amino-4-oxo-4,6,7,8-tetraydro-3H-pyrimido[5,4-b][1,4]thiazin-6-yl)-(R)-ethyl]-3-methyl-2-thienoyl-5-amino-L-glutamic acid] | 
 | 4 | 3 | Nc1ncnc2c1ncn2[C@@H]1O[C@H](CSc2ccc(C(F)(F)F)cc2[N+](=O)[O-])[C@@H](O)[C@H]1O [2(G)(103), (2R, 3R, 4S, 5S)-2-(6-amino-9H-purin-9-yl)-5-({[2-nitro-4-(trifluoromethyl)phenyl]thio}methyl)tetrahydro-furan-3,4-diol] | 
 | 62.5 | 101 | CCCCCCCSC[C@H]1O[C@@H](n2cnc3c(N)ncnc32)[C@H](O)[C@@H]1O [2(G)(125), (2R, 3R, 4S, 5S)-2-(6-amino-9H-purin-9-yl)-5-[(heptylthio)methyl]-tetrahydrofuran-3,4-diol] | 
 | 4 | 5 | CC(C)n1c(O)nnc1SC[C@H]1O[C@@H](n2cnc3c(N)ncnc32)[C@H](O)[C@@H]1O [2(G)(65), (2R, 3R, 4S, 5S)-2-(6-amino-9H-purin-9-yl)-5-{[(5-hydroxy-4-isopropyl-4H-1,2,4-triazol-3-yl)thio]methyl}tetrahydrofuran-3,4-diol] | 
